Data from ChEMBL document CHEMBL3627615, “Discovery of the disubstituted oxazole analogues as a novel class anti-tuberculotic agents against MDR- and XDR-MTB” (Bioorg Med Chem Lett, 2015).
In brackets after ≈: the same amount, converted by molar mass.

How the values were obtained:
[1] = test system: Mycobacterium tuberculosis; test: Antimycobacterial activity against multidrug-resistant Mycobacterium tuberculosis FJ05120 after 3 to 4 weeks by microplate alamar blue assay; assay type: functional
[2] = test system: Mycobacterium tuberculosis; test: Antimycobacterial activity against extensively drug-resistant Mycobacterium tuberculosis FJ05195 after 3 to 4 weeks by microplate alamar blue assay; assay type: functional

| SMILES | MIC90 [1] | MIC90 [2] |
| --- | --- | --- |
| COc1ccc(C(=O)C2CCN(Cc3coc(-c4ccc(F)cc4)n3)CC2)cc1OC | 16 µg/mL (≈ 37.7 µM) | 16 µg/mL (≈ 37.7 µM) |
| O=C(c1ccc2c(c1)OCCO2)C1CCN(Cc2coc(-c3ccc(F)cc3)n2)CC1 | 8 µg/mL (≈ 18.9 µM) | 8 µg/mL (≈ 18.9 µM) |
| O=C(c1ccc2c(c1)OCCO2)C1CCN(Cc2coc(-c3ccc(Cl)cc3)n2)CC1 | 8 µg/mL (≈ 18.2 µM) | 4 µg/mL (≈ 9.11 µM) |
| O=C(c1ccc2c(c1)OCCO2)C1CCN(Cc2coc(-c3ccc(Br)cc3)n2)CC1 | 8 µg/mL (≈ 16.6 µM) | 8 µg/mL (≈ 16.6 µM) |
| O=C(c1ccc2c(c1)OCCO2)C1CCN(Cc2coc(-c3ccccc3)n2)CC1 | 8 µg/mL (≈ 19.8 µM) | 8 µg/mL (≈ 19.8 µM) |
| O=C(c1ccc2c(c1)OCCO2)C1CCN(Cc2coc(-c3ccc(C(F)(F)F)cc3)n2)CC1 | 64 µg/mL (≈ 135 µM) | 64 µg/mL (≈ 135 µM) |
| O=C(c1ccc2c(c1)OCCO2)C1CCN(Cc2coc(-c3ccc(F)c(F)c3)n2)CC1 | 8 µg/mL (≈ 18.2 µM) | 8 µg/mL (≈ 18.2 µM) |
| O=C(c1ccc2c(c1)OCCO2)C1CCN(Cc2coc(-c3ccccc3F)n2)CC1 | 16 µg/mL (≈ 37.9 µM) | 8 µg/mL (≈ 18.9 µM) |
| O=C(c1ccc2c(c1)OCCO2)C1CCN(Cc2coc(-c3cccc(F)c3)n2)CC1 | 16 µg/mL (≈ 37.9 µM) | 8 µg/mL (≈ 18.9 µM) |
| COc1ccc(-c2nc(CN3CCC(C(=O)c4ccc5c(c4)OCCO5)CC3)co2)cc1 | 8 µg/mL (≈ 18.4 µM) | 4 µg/mL (≈ 9.21 µM) |
| Cc1ccc(-c2nc(CN3CCC(C(=O)c4ccc5c(c4)OCCO5)CC3)co2)cc1 | 64 µg/mL (≈ 153 µM) | 64 µg/mL (≈ 153 µM) |
| CC(C)(C)c1ccc(-c2nc(CN3CCC(C(=O)c4ccc5c(c4)OCCO5)CC3)co2)cc1 | 2 µg/mL (≈ 4.34 µM) | 1 µg/mL (≈ 2.17 µM) |
| O=C(c1ccc2c(c1)OCCO2)C1CCN(Cc2coc(-c3cccnc3)n2)CC1 | 32 µg/mL (≈ 78.9 µM) | 32 µg/mL (≈ 78.9 µM) |
| O=C(c1ccc2c(c1)OCCO2)C1CCN(Cc2coc(-c3ccco3)n2)CC1 | 32 µg/mL (≈ 81.1 µM) | 32 µg/mL (≈ 81.1 µM) |
| O=C(c1ccc2c(c1)OCCO2)C1CCN(Cc2coc(-c3ccoc3)n2)CC1 | 32 µg/mL (≈ 81.1 µM) | 64 µg/mL (≈ 162 µM) |
| O=C(c1ccc2c(c1)OCCO2)C1CCN(Cc2csc(-c3ccc(Cl)cc3)n2)CC1 | > 128 µg/mL | > 128 µg/mL |
| CC(C)(C)c1ccc(-c2nc(CN3CCC(C(=O)c4ccc5c(c4)OCCO5)CC3)cs2)cc1 | > 128 µg/mL | > 128 µg/mL |
| O=C(c1ccc2c(c1)OCCO2)C1CCN(Cc2cc(-c3ccc(F)cc3)on2)CC1 | > 128 µg/mL | > 128 µg/mL |
| O=C(c1ccc2c(c1)CCCC2)C1CCN(Cc2coc(-c3ccc(F)cc3)n2)CC1 | 4 µg/mL (≈ 9.56 µM) | 4 µg/mL (≈ 9.56 µM) |
| O=C(c1ccc(F)c(F)c1)C1CCN(Cc2coc(-c3ccc(F)cc3)n2)CC1 | 8 µg/mL (≈ 20 µM) | 8 µg/mL (≈ 20 µM) |
| O=C(c1ccccc1)C1CCN(Cc2coc(-c3ccc(F)cc3)n2)CC1 | 4 µg/mL (≈ 11 µM) | 4 µg/mL (≈ 11 µM) |
| Cc1ccc(C(=O)C2CCN(Cc3coc(-c4ccc(F)cc4)n3)CC2)cc1C | 8 µg/mL (≈ 20.4 µM) | 8 µg/mL (≈ 20.4 µM) |
| Cc1ccc(C(=O)C2CCN(Cc3coc(-c4ccc(F)cc4)n3)CC2)cc1 | 16 µg/mL (≈ 42.3 µM) | 8 µg/mL (≈ 21.1 µM) |
| COc1ccc(C(=O)C2CCN(Cc3coc(-c4ccc(F)cc4)n3)CC2)cc1 | 8 µg/mL (≈ 20.3 µM) | 8 µg/mL (≈ 20.3 µM) |
| CC(C)(C)c1ccc(-c2nc(CN3CCC(C(=O)c4ccc5c(c4)CCCC5)CC3)co2)cc1 | 4 µg/mL (≈ 8.76 µM) | 4 µg/mL (≈ 8.76 µM) |
| CC[C@@H](CO)NCCN[C@@H](CC)CO [ETHAMBUTOL] | 1 µg/mL (≈ 4.89 µM) | 8 µg/mL (≈ 39.2 µM) |
| NNC(=O)c1ccncc1 [ISONIAZID] | 1 µg/mL (≈ 7.29 µM) | 4 µg/mL (≈ 29.2 µM) |
| CO[C@H]1/C=C/O[C@@]2(C)Oc3c(C)c(O)c4c(O)c(c(/C=N/N5CCN(C)CC5)c(O)c4c3C2=O)NC(=O)/C(C)=C\C=C\[C@H](C)[C@H](O)[C@@H](C)[C@@H](O)[C@@H](C)[C@H](OC(C)=O)[C@@H]1C [RIFAMPIN] | > 256 µg/mL | > 256 µg/mL |
| CN[C@@H]1[C@H](O[C@H]2[C@H](O[C@H]3[C@H](O)[C@@H](O)[C@H](N=C(N)N)[C@@H](O)[C@@H]3N=C(N)N)O[C@@H](C)[C@]2(O)C=O)O[C@@H](CO)[C@H](O)[C@H]1O [STREPTOMYCIN] | < 0.5 µg/mL | 64 µg/mL (≈ 110 µM) |
